Data reported in BindingDB's records for doi:10.1021/acs.jmedchem.6b01303 (Astrazeneca, 2016).

Assay: Inhibition of SMYD2 (unknown origin) expressed in human U2OS cells assessed as reduction in cell count incubated for 24 hrs by DAPI staining based assay

IC50 [µM] | SMILES
5 | N#Cc1cc(C(=O)NCCCN2CCCC2)cc(-c2ccccc2N2CCN(CCc3ccc(Cl)c(Cl)c3)CC2)c1
13.3 | O=C(NCCCN1CCCC1)c1cncc(-c2ccccc2N2CCN(CCc3c[nH]c4ccccc34)CC2)c1
